The values that follow come from patent US20170348306A1, “METHODS OF TREATING CANCER” (GLAXOSMITHKLINE LLC, priority 2011, published 2017).

Molecules are shown by their SMILES. Read-outs that look alike come from different tables or passages of the source.

What all share (experiment): Cell proliferation assay (6 days, CellTiter-Glo)
Holding throughout (format): cell-based

The test system of one test is BC-3. The following applies: Homo sapiens, 144 h, PEL, AIDS-BCBL, EZH2 D185H (HET), read-out: AVERAGE GROWTH IC50. From the text: (§1) Thus, Example 22 and Table 6 better reflect the inhibition of HZH2 inhibitors on cell lines, e.g. the lymphoma cell lines. DLBCL cell lines were the most sensitive to EZH2 inhibition (FIG. 11a). […] Evaluation of GSK126 in additional lymphoma cell lines and extensive genomic and epigenomic characterization will be required to fully elucidate the determinants of sensitivity among lymphoma subtypes.
(§2) Biochemical assays utilized the 5-member PRC2 complex (human Flag-EZH2, EED, SUZ12, AEBP2, RbAp48) containing either WT or mutant EZH2, [^3H-]SAM and the indicated peptide substrate; reactions were incubated for 30 minutes. Global histone modification levels were determined by ELISA or western blot methods using antibodies specific for total histone H3, H3K27me1, H3K27me2, or H3K27me3. Cell proliferation and Caspase-3/7 activity were assessed using CellTiter-Glo and Caspase-Glo 3/7 (Promega), respectively. Gene expression profiling was conducted using Affymetrix Human Genome U133 Plus 2.0 microarrays. Differentially-expressed probe sets were determined by fitting the data to a linear model using the limma statistical package (http://www.bioconductor.org) and carrying out pair-wise contrasts of treated versus control. Significant probe sets were filtered for detection (log2 signal threshold of 8), an average fold-change >2 or <−2, or >1.5 or <−1.5, where indicated, with p-values adjusted for multiple testing correction by FDR (Benjamini Hochberg)<0.1. H3K27me3 ChIP reads were aligned using Bowtie (56). H3K27me3 enrichment peaks were identified using SICER (57) with optimized parameters. A custom PERL script was utilized to quantify the average basal H3K27me3 ChIP-seq tag density across gene sets. All in vivo studies were conducted after review by the Institutional Animal Care and Use Committee at GSK and in accordance with the GSK Policy on the Care, Welfare and Treatment of Laboratory Animals. GSK126 and vehicle were administered to mice intraperitoneally. Two-tailed t-tests were conducted assuming two samples of equal variance.
(§3) The optimal cell seeding was determined empirically for all cell lines by examining the growth of a wide range of seeding densities in a 384-well format to identify conditions that permitted proliferation for 6 days. […] Plates were incubated for 6 days at 37° C. in 5% CO2. Cells were then lysed with CellTiter-Glo (Promega) and chemiluminescent signal was detected with a TECAN Safire2 microplate reader. In addition, an untreated plate of cells was harvested at the time of compound addition (T0) to quantify the starting number of cells. CTG values obtained after the 6 day treatment were expressed as a percent of the T0 value and plotted against compound concentration.

In the next test the test system is CA46. The following applies: Homo sapiens, 144 h, BURKITT, EZH2 D185H (HET), read-out: AVERAGE GROWTH IC50.
From the text: as §1, §2, §3

The next test has as its system CI-1. As to conditions: Homo sapiens, 144 h, B-NHL, EZH2 D185H (HET), read-out: AVERAGE GROWTH IC50.
From the text: as §1, §2, §3

The next test relates to Farage. The following applies: Homo sapiens, 144 h, DLBCL, EZH2 D185H (HET), read-out: AVERAGE GROWTH IC50.
From the text: as §1, §2, §3

The next test deals with HT. As to conditions: Homo sapiens, 144 h, DLBCL, EZH2 WT, read-out: AVERAGE GROWTH IC50.
From the text: as §1, §2, §3

For the next test, the system named is Jiyoye. The following applies: Homo sapiens, 144 h.
From the text: as §1, §2, §3

The subject of the next test is L-428. The following applies: Homo sapiens, 144 h, HODGKIN'S, EZH2 Y641S (HET), read-out: AVERAGE GROWTH IC50.
From the text: as §1, §2, §3

For a further test, the system named is RC-K8. As to conditions: Homo sapiens, RCK8, 144 h, B-NHL, EZH2 D185H (HET), read-out: AVERAGE GROWTH IC50.
From the text: as §1, §2, §3

A further test concerns RI-1. As to conditions: Homo sapiens, 144 h, MCL, EZH2 WT, read-out: AVERAGE GROWTH IC50.
From the text: as §1, §2, §3

The subject of another test is RL. As to conditions: Homo sapiens, 144 h, DLBCL, EZH2 Y641N, D185H (HET), read-out: AVERAGE GROWTH IC50.
From the text: as §1, §2, §3

For the next test, the system named is Raji. As to conditions: Homo sapiens, 144 h, BURKITT, EZH2 WT, read-out: AVERAGE GROWTH IC50.
From the text: as §1, §2, §3

In a further test the test system is SC-1. The following applies: Homo sapiens, 144 h, FL, EZH2 D185H (HET), read-out: AVERAGE GROWTH IC50.
From the text: as §1, §2, §3

For a further test, the system named is SU-DHL-10. The following applies: Homo sapiens, SU-DHL10, 144 h, DLBCL, EZH2 Y641F (HET), read-out: AVERAGE GROWTH IC50.
From the text: as §1, §2, §3

A further test concerns SU-DHL-6. The following applies: Homo sapiens, 144 h, DLBCL, EZH2 Y641N (HET), read-out: AVERAGE GROWTH IC50.
From the text: as §1, §2, §3

Another test relates to SU-DHL-8. As to conditions: Homo sapiens, 144 h, DLBCL, EZH2 WT, read-out: AVERAGE GROWTH IC50.
From the text: as §1, §2, §3

A further test concerns U-2932. As to conditions: Homo sapiens, U2932, 144 h, DLBCL, EZH2 WT, read-out: AVERAGE GROWTH IC50.
From the text: as §1, §2, §3

Another test deals with U-698-M. The following applies: Homo sapiens, 144 h, B-NHL, EZH2 WT, read-out: AVERAGE GROWTH IC50.
From the text: as §1, §2, §3

Another test has as its system WSU-DLCL2. The following applies: Homo sapiens, WSUDLCL2, 144 h, DLBCL, EZH2 Y641F (HET), read-out: AVERAGE GROWTH IC50.
From the text: as §1, §2, §3

Consider `CC[C@H](C)n1cc(C)c2c(C(=O)NCc3c(C)cc(C)[nH]c3=O)cc(-c3ccc(N4CCNCC4)nc3)cc21` [GSK126], for which the IC50 turned out to be 2.22 µM with BC-3; 6.58 µM with CA46; 4.28 µM in the test on CI-1; 1.72 µM in the test on Farage; 0.516 µM with HT; 0.232 µM in the test on Jiyoye (JIYOYE, BURKITT, EZH2 WT, read-out: AVERAGE GROWTH IC50). The IC50 in the test with Jiyoye (Jiyoye, BL cell line with WT EZH2, read-out: growth IC50) turned out to be 0.23 µM; in the test on L-428, 4.7 µM; in the test with RC-K8, 4.53 µM; with RI-1, 7.66 µM; with RL, 4.73 µM; in the test on Raji, 7.87 µM. In addition, the IC50 amounted to 3.73 µM with SC-1; 0.448 µM in the test on SU-DHL-10; 0.582 µM in the test with SU-DHL-6; 3.19 µM with SU-DHL-8; 2.94 µM in the test on U-2932; 5.6 µM in the test on U-698-M. Besides, the IC50 with WSU-DLCL2 stood at 0.134 µM.
